US12522597B2, “Methods and compositions for modulating splicing” (Skyhawk Therapeutics, Inc., priority 2019, dated 2026)
pEC50: −log10 of the molar value.

Experiments:
[1] = test system: mHTT protein; experiment: mHTT protein assay (2B7-MW1, Mesoscale Discovery); format: cell-based, human; settings: GM04724 (CAG 70/20) Huntington's disease patient lymphoblast cells, 48 hours, 2B7-MW1 MSD; read-out: HTT Potency - Protein EC50 mHTT (average)
Protocol: Compounds are tested on GM04724 (CAG 70/20) Huntington's disease patient lymphoblast cells at doses ranging from 10 μM to 0.6 nM. 4,500 cells/well are seeded in 384 well plates. One plate replica is carried out for parallel viability testing by CellTiter Glo (CTG). Compounds are incubated for 48 hours, mHTT protein levels are assessed by the 2B7-MW1 assay via Mesoscale Discovery (MSD) as previously reported (Macdonald et al., 2014). The antibody pair is comprised of previously characterized monoclonals (2B7 and MW1) interrogating two regions for HTT conformation and biological properties: the N17 domain and the polyQ domain (Baldo et al., 2012; Ko et., 2001). 2B7-MW1 is dependent on subject/animal specific levels of HTT at the time of treatment. 2B7-MW1 is dependent on polyQ expansion (e.g., the higher the expansion the higher the signal) and on mHTT size (e.g., a similar polyQ will give higher signal with smaller HTT size). The viability readout is carried out by CTG according to the manufacturer's instructions.

[2] = test system: MDR1; experiment: MDCK-MDR1 permeability assay (BBB penetration potential); format: in vitro ADME; settings: dog; for efflux ratio at 120 min, 5 μM: MDCK-MDR1, pH 7.4, MDCK-MDR1: Efflux; for Papp A→B at 120 min, 5 μM: MDCK-MDR1, pH 7.4, MDCK-MDR1: Papp A-B; for Papp B→A at 120 min, 5 μM: MDCK-MDR1, pH 7.4, MDCK-MDR1: Papp B-A
Protocol: (§1) Each determination is performed in duplicate. […] Analytical conditions are outlined below.

[3] = test system: MDR1-MDCK cell monolayers; experiment: as above; format: in vitro ADME; settings: dog, MDCK-MDR1, 120 min, 5 μM, pH 7.4
Protocol: as §1

Cc1nnc(-c2ccc(-c3ccc(O[C@H]4C[C@@H]5CCC[C@@H](N5)[C@H]4F)nn3)c(O)c2)o1 (single isomer, unassigned) [94-ENT2]
pEC50 [1]: 6.30 to 7.00 | efflux ratio at 120 min, 5 μM [2]: 7 | Papp A→B at 120 min, 5 μM [2]: 6.35 ×10⁻⁶ cm/s | Papp B→A at 120 min, 5 μM [2]: 46.7 ×10⁻⁶ cm/s | MDCK-MDR1: % Recov A-B [3]: 93% | MDCK-MDR1: % Recov B-A [3]: 87%

Cc1nnc(-c2ccc(-c3ccc(O[C@@H]4C[C@H]5CCC[C@H](N5)[C@@H]4F)nn3)c(O)c2)s1 (single isomer, unassigned) [95-ENT1]
pEC50 [1]: 6.30 to 7.00 | efflux ratio at 120 min, 5 μM [2]: 10 | Papp A→B at 120 min, 5 μM [2]: 4.88 ×10⁻⁶ cm/s | Papp B→A at 120 min, 5 μM [2]: 48.8 ×10⁻⁶ cm/s | MDCK-MDR1: % Recov A-B [3]: 72% | MDCK-MDR1: % Recov B-A [3]: 78%

Cc1nnc(-c2ccc(-c3ccc(O[C@H]4C[C@@H]5CCC[C@@H](N5)[C@H]4F)nn3)c(O)c2)s1 (single isomer, unassigned) [95-ENT2]
pEC50 [1]: 6.30 to 7.00 | efflux ratio at 120 min, 5 μM [2]: 9 | Papp A→B at 120 min, 5 μM [2]: 3.59 ×10⁻⁶ cm/s | Papp B→A at 120 min, 5 μM [2]: 33.1 ×10⁻⁶ cm/s | MDCK-MDR1: % Recov A-B [3]: 78% | MDCK-MDR1: % Recov B-A [3]: 87%

Cc1cc(-c2ccc(-c3ccc(O[C@@H]4C[C@H]5CCC[C@H](N5)[C@@H]4F)nn3)c(O)c2)co1 (single isomer, unassigned) [98-ENT1]
pEC50 [1]: 6.30 to 7.00 | efflux ratio at 120 min, 5 μM [2]: 1 | Papp A→B at 120 min, 5 μM [2]: 1.13 ×10⁻⁶ cm/s | Papp B→A at 120 min, 5 μM [2]: 1.39 ×10⁻⁶ cm/s | MDCK-MDR1: % Recov A-B [3]: 9% | MDCK-MDR1: % Recov B-A [3]: 47%

Cc1cc(-c2ccc(-c3ccc(O[C@H]4C[C@@H]5CCC[C@@H](N5)[C@H]4F)nn3)c(O)c2)co1 (single isomer, unassigned) [98-ENT2]
pEC50 [1]: 6.30 to 7.00 | efflux ratio at 120 min, 5 μM [2]: 3 | Papp A→B at 120 min, 5 μM [2]: 1.07 ×10⁻⁶ cm/s | Papp B→A at 120 min, 5 μM [2]: 3.23 ×10⁻⁶ cm/s | MDCK-MDR1: % Recov A-B [3]: 9% | MDCK-MDR1: % Recov B-A [3]: 45%

Cc1ccc(-c2ccc(-c3ccc(O[C@@H]4C[C@H]5CCC[C@H](N5)[C@@H]4F)nn3)c(O)c2)o1 (single isomer, unassigned) [99-ENT1]
pEC50 [1]: 6.30 to 7.00 | efflux ratio at 120 min, 5 μM [2]: 1 | Papp A→B at 120 min, 5 μM [2]: 2.07 ×10⁻⁶ cm/s | Papp B→A at 120 min, 5 μM [2]: 2.37 ×10⁻⁶ cm/s | MDCK-MDR1: % Recov A-B [3]: 9% | MDCK-MDR1: % Recov B-A [3]: 47%

Cc1ccc(-c2ccc(-c3ccc(O[C@H]4C[C@@H]5CCC[C@@H](N5)[C@H]4F)nn3)c(O)c2)o1 (single isomer, unassigned) [99-ENT2]
pEC50 [1]: 6.30 to 7.00 | efflux ratio at 120 min, 5 μM [2]: 1 | Papp A→B at 120 min, 5 μM [2]: 6.11 ×10⁻⁶ cm/s | Papp B→A at 120 min, 5 μM [2]: 6.02 ×10⁻⁶ cm/s | MDCK-MDR1: % Recov A-B [3]: 16% | MDCK-MDR1: % Recov B-A [3]: 55%

Cc1ccc(-c2ccc(-c3ccc(O[C@@H]4C[C@H]5CCC[C@H](N5)[C@@H]4F)nn3)c(O)c2)s1 (single isomer, unassigned) [100-ENT1]
pEC50 [1]: 6.30 to 7.00 | efflux ratio at 120 min, 5 μM [2]: 1 | Papp A→B at 120 min, 5 μM [2]: 0.99 ×10⁻⁶ cm/s | Papp B→A at 120 min, 5 μM [2]: 0.68 ×10⁻⁶ cm/s | MDCK-MDR1: % Recov A-B [3]: 16% | MDCK-MDR1: % Recov B-A [3]: 49%

Cc1ccc(-c2ccc(-c3ccc(O[C@H]4C[C@@H]5CCC[C@@H](N5)[C@H]4F)nn3)c(O)c2)s1 (single isomer, unassigned) [100-ENT2]
pEC50 [1]: 6.30 to 7.00 | efflux ratio at 120 min, 5 μM [2]: 1 | Papp A→B at 120 min, 5 μM [2]: 1.14 ×10⁻⁶ cm/s | Papp B→A at 120 min, 5 μM [2]: 0.68 ×10⁻⁶ cm/s | MDCK-MDR1: % Recov A-B [3]: 18% | MDCK-MDR1: % Recov B-A [3]: 57%

Cc1cc(-c2ccc(-c3ccc(O[C@@H]4C[C@H]5CCC[C@H](N5)[C@@H]4F)nn3)c(O)c2)cs1 (single isomer, unassigned) [101-ENT1]
pEC50 [1]: 6.30 to 7.00 | efflux ratio at 120 min, 5 μM [2]: 1 | Papp A→B at 120 min, 5 μM [2]: 0.86 ×10⁻⁶ cm/s | Papp B→A at 120 min, 5 μM [2]: 0.76 ×10⁻⁶ cm/s | MDCK-MDR1: % Recov A-B [3]: 25% | MDCK-MDR1: % Recov B-A [3]: 70%

Cc1cc(-c2ccc(-c3ccc(O[C@H]4C[C@@H]5CCC[C@@H](N5)[C@H]4F)nn3)c(O)c2)cs1 (single isomer, unassigned) [101-ENT2]
pEC50 [1]: 7.30 to 7.80 | efflux ratio at 120 min, 5 μM [2]: 1 | Papp A→B at 120 min, 5 μM [2]: 0.92 ×10⁻⁶ cm/s | Papp B→A at 120 min, 5 μM [2]: 0.55 ×10⁻⁶ cm/s | MDCK-MDR1: % Recov A-B [3]: 20% | MDCK-MDR1: % Recov B-A [3]: 53%

Cc1cncc(-c2ccc(-c3ccc(O[C@@H]4C[C@H]5CCC[C@H](N5)[C@@H]4F)nn3)c(O)c2)n1 (single isomer, unassigned) [102-ENT1]
pEC50 [1]: 6.30 to 7.00 | efflux ratio at 120 min, 5 μM [2]: 6 | Papp A→B at 120 min, 5 μM [2]: 7.66 ×10⁻⁶ cm/s | Papp B→A at 120 min, 5 μM [2]: 43.1 ×10⁻⁶ cm/s | MDCK-MDR1: % Recov A-B [3]: 89% | MDCK-MDR1: % Recov B-A [3]: 90%
